# In ChEMBL document CHEMBL3045033, “Synthesis of new potential anticancer agents based on 4-thiazolidinone and oleanane scaffolds” (Med Chem Res, 2012):
# Assays:
# Type in all cases: functional
# IGROV-1 = assay: Cytotoxicity against Homo sapiens (human) IGROV1 cells assessed as cellular growth at 10^-5 M after 48 hr by SRB assay relative to untreated control
# HL-60(TB) = assay: Cytotoxicity against Homo sapiens (human) HL-60(TB) cells assessed as cellular growth at 10^-5 M after 48 hr by SRB assay relative to untreated control
# RPMI-8226 = assay: Cytotoxicity against Homo sapiens (human) RPMI8226 cells assessed as cellular growth at 10^-5 M after 48 hr by SRB assay relative to untreated control
# T47D = assay: Cytotoxicity against Homo sapiens (human) T47D cells assessed as cellular growth at 10^-5 M after 48 hr by SRB assay relative to untreated control
# K562 = assay: Cytotoxicity against Homo sapiens (human) K562 cells assessed as cellular growth at 10^-5 M after 48 hr by SRB assay relative to untreated control
# SR = assay: Cytotoxicity against Homo sapiens (human) SR cells assessed as cellular growth at 10^-5 M after 48 hr by SRB assay relative to untreated control
# PC-3 = assay: Cytotoxicity against Homo sapiens (human) PC3 cells assessed as cellular growth at 10^-5 M after 48 hr by SRB assay relative to untreated control
# BT-549 = assay: Cytotoxicity against Homo sapiens (human) BT549 cells assessed as cellular growth at 10^-5 M after 48 hr by SRB assay relative to untreated control
# SF-295 = assay: Cytotoxicity against Homo sapiens (human) SF295 cells assessed as cellular growth at 10^-5 M after 48 hr by SRB assay relative to untreated control
# CCRF-CEM = assay: Cytotoxicity against Homo sapiens (human) CCRF-CEM cells assessed as cellular growth at 10^-5 M after 48 hr by SRB assay relative to untreated control
# COLO 205 = assay: Cytotoxicity against Homo sapiens (human) COLO205 cells assessed as cellular growth at 10^-5 M after 48 hr by SRB assay relative to untreated control
# SK-OV-3 = assay: Cytotoxicity against Homo sapiens (human) SKOV3 cells assessed as cellular growth at 10^-5 M after 48 hr by SRB assay relative to untreated control
Compound,Activity (T47D),Activity (K562),Activity (SR),further results
COC(=O)[C@]12CCC(C)(C)C[C@H]1C1=CC[C@@H]3[C@@]4(C)CC/C(=N\OC(=O)CCN5C(=O)/C(=C/c6ccc(N(C)C)cc6)SC5=S)C(C)(C)[C@@H]4CC[C@@]3(C)[C@]1(C)CC2,–,–,–,Activity (IGROV-1): 82.21%
CC1(C)CC[C@@]23CC[C@]4(C)[C@@](OC2=O)([C@@H]3C1)[C@@H](Br)C[C@@H]1[C@@]2(C)CC/C(=N\OC(=O)/C=C3/SC(=O)NC3=O)C(C)(C)[C@@H]2CC[C@]14C,24.85%,27.12%,29.41%,Activity (HL-60(TB)): 26.14%; Activity (RPMI-8226): 26.82%
COC(=O)[C@]12CCC(C)(C)C[C@H]1C1=CC[C@@H]3[C@@]4(C)CCC(=O)C(C)(C)[C@@H]4CC[C@@]3(C)[C@]1(C)CC2,75.65%,–,63.87%,Activity (PC-3): 85.25%
COC(=O)[C@]12CCC(C)(C)C[C@H]1C1=CC[C@@H]3[C@@]4(C)CC/C(=N\OC(=O)CCCCCN5C(=O)CSC5=S)C(C)(C)[C@@H]4CC[C@@]3(C)[C@]1(C)CC2,76.91%,–,42.83%,–
COC(=O)[C@]12CCC(C)(C)C[C@H]1C1=CC[C@@H]3[C@@]4(C)CC/C(=N\OC(=O)CN5C(=O)/C(=C/c6ccc(OC)cc6)SC5=S)C(C)(C)[C@@H]4CC[C@@]3(C)[C@]1(C)CC2,–,–,–,Activity (BT-549): 67.36%; Activity (SF-295): 72.97%
CC1(C)CC[C@]2(C(=O)N3CCOCC3)CC[C@]3(C)C(=CC[C@@H]4[C@@]5(C)CC/C(=N\OC(=O)CC6SC(=O)NC6=O)C(C)(C)[C@@H]5CC[C@]43C)[C@@H]2C1 (some centres undefined),29.41%,–,48.74%,Activity (HL-60(TB)): 42.47%; Activity (RPMI-8226): 21.46%
COC(=O)[C@]12CCC(C)(C)C[C@H]1C1=CC[C@@H]3[C@@]4(C)CC/C(=N\OC(=O)CN5C(=O)CSC5=S)C(C)(C)[C@@H]4CC[C@@]3(C)[C@]1(C)CC2,–,–,–,Activity (CCRF-CEM): 56.34%
CC1(C)CC[C@@]23CC[C@]4(C)[C@@](OC2=O)([C@@H]3C1)[C@@H](Br)C[C@@H]1[C@@]2(C)CCC(=O)C(C)(C)[C@@H]2CC[C@]14C,–,78.11%,–,Activity (COLO 205): 302.68%; Activity (SF-295): 270.75%; Activity (SK-OV-3): 335.31%
CC1(C)CC[C@]2(C(=O)O)CC[C@]3(C)C(=CC[C@@H]4[C@@]5(C)CC/C(=N\OC(=O)CC6SC(=O)NC6=O)C(C)(C)[C@@H]5CC[C@]43C)[C@@H]2C1 (some centres undefined),–,54.55%,54.18%,–
